Earlier results, collected in EP3616687A2, “PREPARATION FOR THE TREATMENT AND/OR PROPHYLAXIS OF INFLAMMATORY INFECTIOUS DISEASES” (Lovtsov, Valentin Vyacheslavovich, priority 2017, dated 2018).

Details: clinical microbiological studies

[H]/N=C(\N/C(=N/[H])NCCCCCCNC(=N)NC(=N)Nc1ccc(Cl)cc1)Nc1ccc(Cl)cc1 [Chlorhexidine]
antibacterial activity, fold higher compared to Miramistine: 8 fold
